Laboratory results taken from patent US11000033B2, “Ketone or oxime compound, and herbicide” (NISSAN CHEMICAL CORPORATION, priority 2014, dated 2021).

Experiments:
Assay type in all cases: in vivo
[1] = tested on: Echinochloa oryzacola Vasing.; test: Test Example 1: herbicidal activity, application before weed generation in submerged conditions (symbol A); conditions: application herbicide amount 320 g/ha
Method in brief: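 Application before weed emergence: an aqueous dilution of the emulsion formulation was poured onto the surface of 4 cm-deep floodwater on the day of sowing. Effect was judged after 3 weeks (greenhouse, 25–30 °C).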

[2] = tested on: Echinochloa crus-galli var. crus-galli; test: Test Example 3: herbicidal effect by foliage application, Wagner pot (symbol H); conditions: application herbicide amount 320 g/ha
Method in brief: (§1)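 Seeds sown in alluvial soil kept under 0.1–0.5 cm water, greenhouse 25–30 °C; 14 d growth. Leaves treated by small sprayer with water-diluted emulsion at a predetermined rate. Effect graded by set scale, 3 weeks.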

Leptochloa chinensis = test: Test Example 3: herbicidal effect by foliage application, Wagner pot (symbol D); conditions: application herbicide amount 320 g/ha
Method in brief: as §1

Digitaria ciliaris [3] = test: Test Example 4: herbicidal effect by soil treatment (symbol F)
Method in brief: (§2)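 Seeds were sown in sterilized diluvial soil, covered with about 1.5 cm of soil, and the soil surface was sprayed with a water-diluted emulsion of the compound at a predetermined rate. Plants grew in a greenhouse at 25° C. to 30° C.; effects were scored visually 3 weeks after application.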

Setaria viridis [4] = test: Test Example 4: herbicidal effect by soil treatment (symbol G)
Method in brief: as §2

Avena fatua = test: Test Example 4: herbicidal effect by soil treatment (symbol I)
Method in brief: as §2

Alopecurus myosuroides = test: Test Example 4: herbicidal effect by soil treatment (symbol J)
Method in brief: as §2

Amaranthus retroflexus = test: Test Example 4: herbicidal effect by soil treatment (symbol N)
Method in brief: as §2

Veronica persica = test: Test Example 4: herbicidal effect by soil treatment (symbol R)
Method in brief: as §2

rapeseed = test: Test Example 4: effect on crop by soil treatment (symbol g); conditions: for g: rapeseed, effect on crop grade: application herbicide amount 320 g/ha
Method in brief: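 Soil-treatment setup: crop and weed seeds were spot-sown into sterilized diluvial soil, then buried beneath approximately 1.5 cm of it, and the boxes were housed in a 25–30° C. greenhouse.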

Digitaria ciliaris [5] = test: Test Example 5: herbicidal effect by foliage application, plastic box (symbol F); conditions: 320 g/ha, 3 weeks after application
Method in brief: (§3)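 Emulsion formulation, diluted with water to the intended rate, was applied uniformly to leaves by small sprayer. Recipients were 14-day greenhouse-grown seedlings (25° C. to 30° C.). Assessment followed at 3 weeks.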

Setaria viridis [6] = test: Test Example 5: herbicidal effect by foliage application, plastic box (symbol G); conditions: 320 g/ha, 3 weeks after application
Method in brief: as §3

Lolium multiflorum Lam. = test: Test Example 5: herbicidal effect by foliage application, plastic box (symbol K); conditions: 320 g/ha, 3 weeks after application
Method in brief: as §3

Apera spica-venti = test: Test Example 5: herbicidal effect by foliage application, plastic box (symbol L); conditions: 320 g/ha, 3 weeks after application
Method in brief: as §3

Abutilon theophrasti = test: Test Example 5: herbicidal effect by foliage application, plastic box (symbol M); conditions: 320 g/ha, 3 weeks after application
Method in brief: as §3

Chenopodium album = test: Test Example 5: herbicidal effect by foliage application, plastic box (symbol O); conditions: 320 g/ha, 3 weeks after application
Method in brief: as §3

Stellaria media = test: Test Example 5: herbicidal effect by foliage application, plastic box (symbol P); conditions: 320 g/ha, 3 weeks after application
Method in brief: as §3

Galium spurium = test: Test Example 5: herbicidal effect by foliage application, plastic box (symbol Q); conditions: 320 g/ha, 3 weeks after application
Method in brief: as §3

rice plant = test: Test Example 5: effect on crop by foliage application, plastic box (symbol b); conditions: 320 g/ha, 3 weeks after application
Method in brief: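 A greenhouse held between 25° C. and 30° C. was used to grow plants sown spot-wise, beneath ~1.5 cm of soil, in boxes of sterilized diluvial soil.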

[7] = application herbicide amount 320 g/ha

| Compound | Herbicidal effect grade, A: Echinochloa oryzacola Vasing. [1] | herbicidal effect on H (Echinochloa crus-galli var. crus-galli), grade 0-5 [2] | herbicidal effect on D (Leptochloa chinensis), grade 0-5 (Leptochloa chinensis) | F: Digitaria ciliaris, herbicidal effect grade (Digitaria ciliaris [3]; [7]) | G: Setaria viridis, herbicidal effect grade (Setaria viridis [4]; [7]) | I: Avena fatua, herbicidal effect grade (Avena fatua; [7]) | J: Alopecurus myosuroides, herbicidal effect grade (Alopecurus myosuroides; [7]) | N: Amaranthus retroflexus, herbicidal effect grade (Amaranthus retroflexus; [7]) | R: Veronica persica, herbicidal effect grade (Veronica persica; [7]) | g: rapeseed, effect on crop grade (rapeseed) | F: Digitaria ciliaris, herbicidal effect grade (Digitaria ciliaris [5]) | G: Setaria viridis, herbicidal effect grade (Setaria viridis [6]) | K: Lolium multiflorum Lam., herbicidal effect grade (Lolium multiflorum Lam.) | L: Apera spica-venti, herbicidal effect grade (Apera spica-venti) | M: Abutilon theophrasti, herbicidal effect grade (Abutilon theophrasti) | O: Chenopodium album, herbicidal effect grade (Chenopodium album) | P: Stellaria media, herbicidal effect grade (Stellaria media) | Q: Galium spurium, herbicidal effect grade (Galium spurium) | b: directly sowed rice plant, effect on crop grade (rice plant) | further results |
| --- | --- | --- | --- | --- | --- | --- | --- | --- | --- | --- | --- | --- | --- | --- | --- | --- | --- | --- | --- | --- |
| Cc1cc(C)c(C2=C(O)CC(CC(=O)C3CCCCC3)C2=O)c(C)c1 (stereo not shown) [2-030] | 4 (Herbicidal ratio of 70% or higher and lower than 90%) | 4 (Herbicidal ratio of 70% or higher and lower than 90%) | 5 (Herbicidal ratio of 90% or more (almost completely withered)) | 4 (Herbicidal ratio of 70% or higher and lower than 90%) | 5 (Herbicidal ratio of 90% or more (almost completely withered)) | 0 (Herbicidal ratio of 5% or lower (almost no effect)) | 3 (Herbicidal ratio of 40% or higher and lower than 70%) | 0 (Herbicidal ratio of 5% or lower (almost no effect)) | 0 (Herbicidal ratio of 5% or lower (almost no effect)) | 0 (Herbicidal ratio of 5% or lower (almost no effect)) | 4 (Herbicidal ratio of 70% or higher and lower than 90%) | 5 (Herbicidal ratio of 90% or more (almost completely withered)) | 5 (Herbicidal ratio of 90% or more (almost completely withered)) | 2 (Herbicidal ratio of 20% or higher and lower than 40%) | 0 (Herbicidal ratio of 5% or lower (almost no effect)) | 0 (Herbicidal ratio of 5% or lower (almost no effect)) | 0 (Herbicidal ratio of 5% or lower (almost no effect)) | 0 (Herbicidal ratio of 5% or lower (almost no effect)) | 5 (Herbicidal ratio of 90% or more (almost completely withered)) | – |
| CON=C(C)CC1CC(OS(=O)(=O)CC[Si](C)(C)C)=C(c2c(C)cc(C)cc2C)C1=O (stereo not shown) [1-144] | 5 (Herbicidal ratio of 90% or more (almost completely withered)) | 5 (Herbicidal ratio of 90% or more (almost completely withered)) | 5 (Herbicidal ratio of 90% or more (almost completely withered)) | – | – | – | – | – | – | – | – | – | – | – | – | – | – | – | – | F: Digitaria ciliaris, herbicidal effect grade (Digitaria ciliaris [3]; 320 g/ha): 5 (Herbicidal ratio of 90% or more (almost completely withered)); G: Setaria viridis, herbicidal effect grade (Setaria viridis [4]; 320 g/ha): 5 (Herbicidal ratio of 90% or more (almost completely withered)); I: Avena fatua, herbicidal effect grade (Avena fatua; 320 g/ha): 2 (Herbicidal ratio of 20% or higher and lower than 40%); J: Alopecurus myosuroides, herbicidal effect grade (Alopecurus myosuroides; 320 g/ha): 4 (Herbicidal ratio of 70% or higher and lower than 90%); N: Amaranthus retroflexus, herbicidal effect grade (Amaranthus retroflexus; 320 g/ha): 0 (Herbicidal ratio of 5% or lower (almost no effect)); R: Veronica persica, herbicidal effect grade (Veronica persica; 320 g/ha): 0 (Herbicidal ratio of 5% or lower (almost no effect)); g: rapeseed, effect grade on crop (rapeseed; 320 g/ha): 2 (Herbicidal ratio of 20% or higher and lower than 40%); F: Digitaria ciliaris, herbicidal effect (criteria 0-5) (Digitaria ciliaris [5]): 5 (Herbicidal ratio of 90% or more (almost completely withered)); G: Setaria viridis, herbicidal effect (criteria 0-5) (Setaria viridis [6]): 5 (Herbicidal ratio of 90% or more (almost completely withered)); K: Lolium multiflorum Lam., herbicidal effect (criteria 0-5) (Lolium multiflorum Lam.): 5 (Herbicidal ratio of 90% or more (almost completely withered)); L: Apera spica-venti, herbicidal effect (criteria 0-5) (Apera spica-venti): 5 (Herbicidal ratio of 90% or more (almost completely withered)); M: Abutilon theophrasti, herbicidal effect (criteria 0-5) (Abutilon theophrasti): 4 (Herbicidal ratio of 70% or higher and lower than 90%); O: Chenopodium album, herbicidal effect (criteria 0-5) (Chenopodium album): 0 (Herbicidal ratio of 5% or lower (almost no effect)); P: Stellaria media, herbicidal effect (criteria 0-5) (Stellaria media): 2 (Herbicidal ratio of 20% or higher and lower than 40%); Q: Galium spurium, herbicidal effect (criteria 0-5) (Galium spurium): 2 (Herbicidal ratio of 20% or higher and lower than 40%); b: directly sowed rice plant, effect on crop (criteria 0-5) (rice plant): 5 (Herbicidal ratio of 90% or more (almost completely withered)) |
| CON=C(C)C1CC(O)=C(c2c(C)cc(C)cc2C)C1=O (mixture of isomers) [3-002] | 0 (Herbicidal ratio of 5% or lower (almost no effect)) | 0 (Herbicidal ratio of 5% or lower (almost no effect)) | 0 (Herbicidal ratio of 5% or lower (almost no effect)) | 0 (Herbicidal ratio of 5% or lower (almost no effect)) | 0 (Herbicidal ratio of 5% or lower (almost no effect)) | 0 (Herbicidal ratio of 5% or lower (almost no effect)) | 0 (Herbicidal ratio of 5% or lower (almost no effect)) | 0 (Herbicidal ratio of 5% or lower (almost no effect)) | 0 (Herbicidal ratio of 5% or lower (almost no effect)) | 0 (Herbicidal ratio of 5% or lower (almost no effect)) | 0 (Herbicidal ratio of 5% or lower (almost no effect)) | 2 (Herbicidal ratio of 20% or higher and lower than 40%) | 1 (Herbicidal ratio of 5% or higher and lower than 20%) | 0 (Herbicidal ratio of 5% or lower (almost no effect)) | 0 (Herbicidal ratio of 5% or lower (almost no effect)) | 0 (Herbicidal ratio of 5% or lower (almost no effect)) | 0 (Herbicidal ratio of 5% or lower (almost no effect)) | 0 (Herbicidal ratio of 5% or lower (almost no effect)) | 3 (Herbicidal ratio of 40% or higher and lower than 70%) | – |
| CCOC(=O)C(C(=O)C(F)(F)F)C1CC(O)=C(c2c(C)cc(C)cc2C)C1=O (stereo not shown) [2-010] | 0 (Herbicidal ratio of 5% or lower (almost no effect)) | 3 (Herbicidal ratio of 40% or higher and lower than 70%) | 0 (Herbicidal ratio of 5% or lower (almost no effect)) | 0 (Herbicidal ratio of 5% or lower (almost no effect)) | 0 (Herbicidal ratio of 5% or lower (almost no effect)) | 0 (Herbicidal ratio of 5% or lower (almost no effect)) | 0 (Herbicidal ratio of 5% or lower (almost no effect)) | 0 (Herbicidal ratio of 5% or lower (almost no effect)) | 0 (Herbicidal ratio of 5% or lower (almost no effect)) | 0 (Herbicidal ratio of 5% or lower (almost no effect)) | 0 (Herbicidal ratio of 5% or lower (almost no effect)) | 0 (Herbicidal ratio of 5% or lower (almost no effect)) | 0 (Herbicidal ratio of 5% or lower (almost no effect)) | 0 (Herbicidal ratio of 5% or lower (almost no effect)) | 0 (Herbicidal ratio of 5% or lower (almost no effect)) | 0 (Herbicidal ratio of 5% or lower (almost no effect)) | 0 (Herbicidal ratio of 5% or lower (almost no effect)) | 0 (Herbicidal ratio of 5% or lower (almost no effect)) | 0 (Herbicidal ratio of 5% or lower (almost no effect)) | – |
